Peptide text beside a SMILES is read from it. * marks the point of attachment. Cbz = O=C(OCc1ccccc1)*; CH2F = FC*
B1: FasL: recombinant Fas ligand added to keratinocyte cultures (protein, UniProt P48023 130-281, looked up)
Tumor necrosis factor ligand …: QIGHPSPPPEKKELRKVAHLTGKSNSRSMPLEWEDTYGIVLLSGVKYKKGGLVINETGLYFVYSKVYFRGQSCNNLPLSHKVYMRNSKYPQDLVMMEGKMMSYCTTGQMWARSSYLGAVFNLTSADHLYVNVSELSLVNFEESQTFFGLYKL

Experiments:
keratinocytes [1] = assay: Pemphigus sera-induced cell detachment (acantholysis) of confluent keratinocytes; type: cell-based, human; conditions: pretreatment with Z-IETD-FMK (100 μM for 30 min) or NOK2 15 μg/ml, then sera 72 hrs; FIG. 12B
keratinocytes [2] = assay: Pemphigus sera-induced Dsg3 cleavage and caspase-8 activation in confluent keratinocytes, Western blotting; type: cell-based, human; conditions: pretreatment with Z-IETD-FMK (100 μM for 30 min) or NOK2 15 μg/ml, then sera 72 hrs; FIG. 12A
Procedure: To investigate whether the extrinsic apoptotic pathway is responsible for dsg cleavage, we pretreated confluent keratinocytes with caspase-8 inhibitor Z-IETD-FMK (100 μM for 30 min) or with anti-FasL (NOK2, 15 μg/ml) Ab. Then cells were incubated for 72 hrs with healthy or untreated pemphigus sera. Protein extracts from the culture were analyzed by Western blotting using anti-Dsg3 antibodies and anti-caspase-8 Ab. Vinculin was used as internal control. (FIG. 12A).

human keratinocytes = assay: Pemphigus sera-induced keratinocyte apoptosis, TUNEL staining; type: cell-based; conditions: sera pretreated with anti-FasL neutralizing antibody (2.5 mg per ml for 30 min) or Z-IETD-FMK (100 μM for 30 min); FIG. 6
Procedure: As apoptotic keratinocytes are abundantly expressed in pemphigus, we wanted to explore whether pemphigus sera are capable of inducing apoptosis in normal human keratinocytes. To this purpose, keratinocytes were plated in chamber slides and cultured in serum-free medium (KGM) up to preconfluence. Cells were then cultured in keratinocyte basal medium and treated for 48 h with the addition of 25% serum from either untreated patients or patients treated with systemic corticosteroids. Sera from healthy subjects were used as controls. Apoptosis was evaluated by TUNEL staining in situ. Approximately 100 cells were evaluated, in randomly selected fields, and the percentage of TUNEL-positive cells was counted.
FasL is one of the major triggers of the caspase-8 activated extrinsic apoptotic pathway. Therefore, we wanted to evaluate whether this pathway plays a role in pemphigus apoptosis. To this purpose, patient sera were pretreated with anti-FasL neutralizing antibody or caspase-8 inhibitor, and added to keratinocyte cultures. Keratinocytes were cultured in KGM and treated with pemphigus sera or with sera from untreated patients. Sera were pretreated with anti-FasL neutralizing antibody (2.5 mg per ml for 30 min) or caspase-8 inhibitor Z-IETD-FMK (100 μM for 30 min). Apoptosis was evaluated by TUNEL staining.

keratinocytes [3] = assay: Treatment of keratinocytes with increasing amounts of FasL, Western blotting with anti-Dsg1 and anti-Dsg3; type: cell-based, human; conditions: FasL 0.1, 10, 100 ng/ml for 72 hrs; FIG. 9
Procedure: Protein extracts from the culture were analyzed by Western blotting using anti-Dsg1 and anti-Dsg3 antibodies. β-actin was used as internal control. These doses are consistent with the ones detected in pemphigus sera (FIG. 9).

Row | Molecule | cell detachment (i.e. acantholysis) by untreated pemphigus sera (keratinocytes [1]) | caspase-8 activation by untreated pemphigus sera (keratinocytes [2]) | dsg cleavage by untreated pemphigus sera (keratinocytes [2]) | pemphigus sera-induced keratinocyte apoptosis (TUNEL staining) (human keratinocytes) | cleavage of dsgs (Dsg1, Dsg3) by FasL (keratinocytes [3])
1 | CC[C@H](C)[C@H](NC(=O)OCc1ccccc1)C(=O)N[C@@H](CCC(=O)OC)C(=O)N[C@H](C(=O)N[C@@H](CC(=O)OC)C(=O)CF)[C@@H](C)O [Z-IETD-FMK] (Cbz-IE(OMe)TD(OMe)-CH2F) | prevented | prevents both caspase-8 activation and dsg cleavage | prevents both caspase-8 activation and dsg cleavage | partially prevented | –
2 | B1 | – | – | – | – | cleaved dsgs in a dose-dependent manner

— patent publication US20110038867A1, “REMEDIES FOR PEMPHIGUS CONTAINING ANTI FAS LIGAND ANTIBODIES” (priority 2007, published 2011)
